Reference: US20120156670A1, “IN VITRO […]-CULTURE MODELS” (ARIZONA STATE UNIVERSITY, priority 2010, published 2012)

Columns and labels:
[1] = test system: endocervical model co-culture; assay: Bioplex cytokine production in co-culture supernatants, endocervical model; format: cell-based, human; settings: FIG. 4
Description: Vaginal- and endocervix-cell bearing microcarriers were collected, washed, and re-suspended in 30 mL of KSFM complete medium (Invitrogen, with EGF and BPE), CaCl, and Primocin (InvivoGen). They were then placed on a shaker in polystyrene bottles with vented caps in an incubator (5% CO2, 37° C.) to mimic the circular agitation of the RWV bioreactor. The two types of cell-bearing microcarriers were primed using E. coli as the antigen to mimic an in vivo infection of the female reproductive mucosa through the following steps after a day of culture in the incubator. The E. coli was heat-inactivated and the resulting bioparticles were added at a concentration of 1×10^6/mL to the shaker bottles. E. coli bioparticles alone and no-treatment conditions served as positive and baseline controls, respectively.
The effect of the microbicide nonoxynol-9 (N-9) on antigen priming was studied in experiments by mimicking in vivo microbicidal exposure through the use of Conceptrol®, leading to tissue damage, followed by bacterial infection. Over-the-counter, N-9-containing Conceptrol® was diluted to 20 μg/mL. The concentration of Conceptrol® was chosen to limit massive cell death due to presence of N-9 and reported findings of weakened membrane integrity in the presence of this surfactant microbicide (Dayal, 2003). […]

vaginal epithelial cells = settings: background statement; cited from earlier work
[2] = test system: dendritic cells in vaginal model co-culture; assay: MIMIC co-culture of primed vaginal epithelial microcarriers with PTE module: dendritic cell recovery; format: cell-based, human; settings: FIG. 2
Source text: (§1) Our experimental design of the MIMIC® co-culture of RWV bioreactor-grown epithelial tissue from selected female reproductive tract tested the efficacy of the differentiated epithelia to pick up and present antigen (FIG. 1). RWV-cultured female reproductive microcarriers of differentiated vaginal and endocervical mucosa were exposed to microbicide/spermicide and bacterial antigen and then introduced to the APC-containing PTE module to study the innate immune responses to Nonoxynol-9 and E. coli bioparticulate treatments.
(§2) Approximately 3.5-week cultured vaginal tissue aggregates and endocervical tissue aggregates were used to mimic the local mucosal tissue of the female reproductive vaginal and endocervical regions. Cell-bearing microcarrier beads were prepared as follows. Collagen-coated Cytodex beads (Sigma) composed of dextran and having an average size of ˜60-87 microns were prepared for cell attachment by soaking in sterile PBS overnight and autoclaved. […]
(§3) Specifically, for the differentiated reproductive epithelial microcarrier co-cultures used here, we generated PTE modules over a period of 2 weeks as follows (see FIG. 1). […] Cell layer integrity and viability were assessed by phase contrast microscopy and/or trypan blue exclusion staining. […]

[3] = test system: dendritic cells in endocervical model co-culture; assay: MIMIC co-culture of primed endocervical epithelial microcarriers with PTE module: dendritic cell recovery; format: cell-based, human; settings: FIG. 2
Source text: as §1, §2, §3

[4] = test system: PTE antigen-presenting cells; assay: Total immune cell recovery by trypan blue exclusion and flow cytometry (FIG. 2); format: cell-based, human; settings: FIG. 2 legend; model not specified
Description: FIG. 2. Total immune cell recovery calculated by trypan blue exclusion and total DCs per treatment were calculated by applying the percentage marker expression from flow cytometry data. […] CD86 and CCR7 expression in the vaginal model also confirm the antigen uptake/presentation responsiveness of the vaginal model.
The quality of immune APCs was determined by quantifying dendritic cell marker expression (HLA-DR, CD14, CD86, CCR7) from the reverse-transmigrated cell fraction of the MIMIC® co-cultures.

[5] = N-9 and E. coli bioparticles delivered together
[6] = single treatment, N-9 20 μg/mL, E. coli bioparticles 1×10^6/mL, overnight co-culture

For nonoxynol-9 [N-9], the “cytokine levels versus no treatment microcarrier plus PTE control” value [1] is listed as “above the no treatment microcarrier plus PTE control”, the “effect on vaginal epithelial cells in vitro” value (vaginal epithelial cells) is listed as “increased inflammation, cell death, and damaged tissue mucosa” and the “live dendritic cell recovery” value [2, 5] is listed as “overall reduction in live dendritic cell recovery”. The “live dendritic cell recovery” value [2, 6] was “overall reduction in live dendritic cell recovery”, the “live dendritic cell recovery” value [3, 5] was “overall reduction in live dendritic cell recovery” and the “live dendritic cell recovery” value [3, 6] was “overall reduction in live dendritic cell recovery”. For the same substance, the “total DC viability” value [4] was “reduced”.
